Measurements: US4363805A, “Aminodesoxy-1.4;3.6-dianhydrohexitol nitrates and pharmaceutical composition” (Firma Willmar Schwabe, priority 1980, dated 1982)

Experiments:
narcotised guinea pigs = experiment: Blood pressure experiments on guinea pigs, i.v.; assay type: in vivo, guinea pig; conditions: for blood pressure before: before administration
[1] = Acute toxicity, intravenous, mice; assay type: in vivo; conditions: mouse, in vivo; intravenous, within 24 hours; read-out: Evaluated LD50-range
female NMRI-albino mice = experiment: Acute toxicity, intravenous, mice; assay type: in vivo; conditions: within 24 hours
[2] = tested on: isolated guinea pig hearts; experiment: Experiments on Langendorff hearts (coronary flowthrough, inotropism, frequency); conditions: Cavia porcellus, read-out: flowthrough, percentage change with regard to the initial value
Description: After reaching the stationary state in the 30th minute, the hearts were each perfused with 50 ml. tyrode solution with a content of test substance of, in each case, 25 μg./ml. Each test substance was tested on 3-6 hearts.
In each case, there was measured the inotropism, the flowthrough and the frequency, whereby the values given in Table I are average values of the percentage changes in comparison with the initial values.

mongrel cats = experiment: Inotropic and heart-circulatory effectiveness on narcotised cats, intravenous; assay type: in vivo, cat; conditions: 6 animals; for blood pressure before / dp/dt (inotropism) before / heart frequency before: before administration

## CC(=O)N[C@H]1CO[C@H]2[C@@H]1OC[C@@H]2O[N+](=O)[O-] [Example 6, 5-Acetylamino-5-desoxy-1.4;3.6-dianhydro-L-iditol 2-nitrate]
Narcotised guinea pigs; 0.25 mg/kg i.v.
  blood pressure after: 63.75 ± 7.32 mm.Hg
  blood pressure Δ: -7.00 mm.Hg
  blood pressure before: 70.75 ± 6.36 mm.Hg
Narcotised guinea pigs; 1.00 mg/kg i.v.
  blood pressure after: 55.75 ± 7.94 mm.Hg
  blood pressure Δ: -14.50 mm.Hg
Narcotised guinea pigs; 2.50 mg/kg i.v.
  blood pressure after: 47.75 ± 5.88 mm.Hg
  blood pressure Δ: -17.75 mm.Hg
[1]
  LD50 at 24 h: > 200 mg/kg
Female NMRI-albino mice; 200 mg/kg i.v.
  Frequency of death: 0/3

## O=[N+]([O-])O[C@H]1CO[C@H]2[C@@H]1OC[C@@H]2NCCc1ccccc1 [Example 27, 5-(2-Phenylethylamino)-5-desoxy-1.4;3.6-dianhydro-L-iditol 2-nitrate]
[2]
  activation at 25 µg/mL: 67.2%

## N#Cc1ccccc1OCC(O)CN[C@H]1CO[C@H]2[C@@H]1OC[C@@H]2O[N+](=O)[O-] (stereo partly drawn) [Example 50, 5-[2-Hydroxy-3-(2-cyanophenoxy)-propylamino]-5-desoxy-1.4;3.6-dianhydro-L-iditol 2-nitrate]
Narcotised guinea pigs; 0.25 mg/kg i.v.
  blood pressure after: 39.25 ± 6.97 mm.Hg
  blood pressure Δ: -16.25 mm.Hg
  blood pressure before: 55.50 ± 7.35 mm.Hg
Narcotised guinea pigs; 1.00 mg/kg i.v.
  blood pressure after: 31.00 ± 3.94 mm.Hg
  blood pressure Δ: -21.50 mm.Hg
Narcotised guinea pigs; 2.50 mg/kg i.v.
  blood pressure after: 22.75 ± 1.80 mm.Hg
  blood pressure Δ: -27.75 mm.Hg
Mongrel cats; 0.25 mg/kg i.v.
  blood pressure before: 121.0 mm.Hg
  dp/dt (inotropism) before: 6533 mm.Hg/sec
  heart frequency before: 190.7 min⁻¹
  blood pressure WD: 8.5 min
  blood pressure after: 108.3 mm.Hg
  blood pressure Δ: -12.7 mm.Hg
  dp/dt (inotropism) after: 6033 mm.Hg/sec
  dp/dt (inotropism) Δ: -500 mm.Hg/sec
  dp/dt WD: 8.2 min
  heart frequency after: 195.3 min⁻¹
  heart frequency Δ: +4.6 min^-1
Mongrel cats; 0.50 mg/kg i.v.
  blood pressure WD: 9.8 min
  blood pressure after: 102.2 mm.Hg
  blood pressure Δ: -18.0 mm.Hg
  dp/dt (inotropism) after: 5133 mm.Hg/sec
  dp/dt (inotropism) Δ: -1267 mm.Hg/sec
  dp/dt WD: 8.2 min
  heart frequency after: 195.3 min⁻¹
  heart frequency Δ: +3.3 min^-1
Mongrel cats; 1.00 mg/kg i.v.
  blood pressure WD: 14.8 min
  blood pressure after: 94.2 mm.Hg
  blood pressure Δ: -27.8 mm.Hg
  dp/dt (inotropism) after: 4200 mm.Hg/sec
  dp/dt (inotropism) Δ: -2067 mm.Hg/sec
  dp/dt WD: 14.8 min
  heart frequency after: 191.7 min⁻¹
  heart frequency Δ: 0 min⁻¹
Mongrel cats; 2.50 mg/kg i.v.
  blood pressure WD: > 10 min
  blood pressure after: 77.5 mm.Hg
  blood pressure Δ: -45.8 mm.Hg
  dp/dt (inotropism) after: 2733 mm.Hg/sec
  dp/dt (inotropism) Δ: -3584 mm.Hg/sec
  dp/dt WD: > 10 min
  heart frequency after: 178.7 min⁻¹
  heart frequency Δ: -10.3 min⁻¹
[1]
  LD50 at 24 h: 100 to 200 mg/kg
Female NMRI-albino mice; 100 mg/kg i.v.
  Frequency of death: 0/3
Female NMRI-albino mice; 200 mg/kg i.v.
  Frequency of death: 4/6

## CN(CCCOc1ccccc1)[C@H]1CO[C@H]2[C@@H]1OC[C@@H]2O[N+](=O)[O-] [Example 34, 5-[N-Methyl-N-(3-phenoxypropyl)-amino]-5-desoxy-1.4;3.6-dianhydro-L-iditol 2-nitrate]
Mongrel cats; 0.25 mg/kg i.v.
  blood pressure before: 95.2 mm.Hg
  dp/dt (inotropism) before: 5333 mm.Hg/sec
  heart frequency before: 180.3 min⁻¹
  blood pressure WD: 4.1 min
  blood pressure after: 73.7 mm.Hg
  blood pressure Δ: -21.5 mm.Hg
  dp/dt (inotropism) after: 4650 mm.Hg/sec
  dp/dt (inotropism) Δ: -683 mm.Hg/sec
  dp/dt WD: 2.8 min
  heart frequency after: 179.3 min⁻¹
  heart frequency Δ: -1.0 min⁻¹
Mongrel cats; 0.50 mg/kg i.v.
  blood pressure WD: 4.2 min
  blood pressure after: 74.8 mm.Hg
  blood pressure Δ: -24.2 mm.Hg
  dp/dt (inotropism) after: 4683 mm.Hg/sec
  dp/dt (inotropism) Δ: -817 mm.Hg/sec
  dp/dt WD: 3,7 min
  heart frequency after: 178.0 min⁻¹
  heart frequency Δ: -1.0 min⁻¹
Mongrel cats; 1.00 mg/kg i.v.
  blood pressure WD: 6.5 min
  blood pressure after: 74.5 mm.Hg
  blood pressure Δ: -30.8 mm.Hg
  dp/dt (inotropism) after: 4400 mm.Hg/sec
  dp/dt (inotropism) Δ: -1033 mm.Hg/sec
  dp/dt WD: 4.2 min
  heart frequency after: 172.0 min⁻¹
  heart frequency Δ: -3.0 min⁻¹
Mongrel cats; 2.50 mg/kg i.v.
  blood pressure WD: > 9.0 min
  blood pressure after: 69.2 mm.Hg
  blood pressure Δ: -39.7 mm.Hg
  dp/dt (inotropism) after: 3850 mm.Hg/sec
  dp/dt (inotropism) Δ: -1450 mm.Hg/sec
  dp/dt WD: > 6.5 min
  heart frequency after: 158.0 min⁻¹
  heart frequency Δ: -15.0 min⁻¹
[2]
  activation at 25 µg/mL: 50%

## O=[N+]([O-])O[C@H]1CO[C@H]2[C@@H]1OC[C@@H]2NCCCCc1ccccc1 [Example 29, 5-(4-Phenylbutylamino)-5-desoxy-1.4;3.6-dianhydro-L-iditol 2-nitrate]
Mongrel cats; 0.25 mg/kg i.v.
  blood pressure before: 106.8 mm.Hg
  dp/dt (inotropism) before: 6480 mm.Hg/sec
  heart frequency before: 209.0 min⁻¹
  blood pressure WD: 3.2 min
  blood pressure after: 91.3 mm.Hg
  blood pressure Δ: -15.5 mm.Hg
  dp/dt (inotropism) after: 6000 mm.Hg/sec
  dp/dt (inotropism) Δ: -480 mm.Hg/sec
  dp/dt WD: 1.6 min
  heart frequency after: 204.3 min⁻¹
  heart frequency Δ: -4.7 min⁻¹
Mongrel cats; 0.50 mg/kg i.v.
  blood pressure WD: 4.1 min
  blood pressure after: 91.3 mm.Hg
  blood pressure Δ: -22.0 mm.Hg
  dp/dt (inotropism) after: 6000 mm.Hg/sec
  dp/dt (inotropism) Δ: -1040 mm.Hg/sec
  dp/dt WD: 8.2 min
  heart frequency after: 204.7 min⁻¹
  heart frequency Δ: -7.3 min⁻¹
Mongrel cats; 1.00 mg/kg i.v.
  blood pressure WD: 11.2 min
  blood pressure after: 90.7 mm.Hg
  blood pressure Δ: -34.0 mm.Hg
  dp/dt (inotropism) after: 5000 mm.Hg/sec
  dp/dt (inotropism) Δ: -2360 mm.Hg/sec
  dp/dt WD: 25.5 min
  heart frequency after: 197.7 min⁻¹
  heart frequency Δ: -11.7 min⁻¹
Mongrel cats; 2.50 mg/kg i.v.
  blood pressure WD: > 10 min
  blood pressure after: 80.8 mm.Hg
  blood pressure Δ: -48.7 mm.Hg
  dp/dt (inotropism) after: 3920 mm.Hg/sec
  dp/dt (inotropism) Δ: -3580 mm.Hg/sec
  dp/dt WD: > 10 min
  heart frequency after: 182.0 min⁻¹
  heart frequency Δ: -23.0 min⁻¹
[1]
  LD50 at 24 h: < 50 mg/kg
Female NMRI-albino mice; 50 mg/kg i.v.
  Frequency of death: 5/6
Female NMRI-albino mice; 100 mg/kg i.v.
  Frequency of death: 5/6
Female NMRI-albino mice; 200 mg/kg i.v.
  Frequency of death: 3/3

## CN(CCc1ccccc1)[C@H]1CO[C@H]2[C@@H]1OC[C@@H]2O[N+](=O)[O-] [Example 20, 5-[N-(2-Phenylethyl)-N-methylamino]-5-desoxy-1.4;3.6-dianhydro-L-iditol 2-nitrate]
[2]
  activation at 25 µg/mL: 66.9%

## COc1ccc(CCCN[C@H]2CO[C@H]3[C@@H]2OC[C@@H]3O[N+](=O)[O-])cc1OC [31 b]
[2]
  activation at 25 µg/mL: 79.4%

## CN(CC=Cc1ccccc1)[C@H]1CO[C@H]2[C@@H]1OC[C@@H]2O[N+](=O)[O-] [Example 24, 5-(N-Cinnamyl-N-methylamino)-5-desoxy-1.4;3.6-dianhydro-L-iditol 2-nitrate]
[2]
  activation at 25 µg/mL: 200%

## CN(CCCCCc1ccccc1)[C@H]1CO[C@H]2[C@@H]1OC[C@@H]2O[N+](=O)[O-] [Example 23, 5-[N-Methyl-N-(5-phenylpentyl)-amino]-5-desoxy-1.4;3.6-dianhydro-L-iditol 2-nitrate]
[2]
  activation at 25 µg/mL: 156%

## O=[N+]([O-])O[C@H]1CO[C@H]2[C@@H]1OC[C@@H]2NCCCOc1ccccc1 [Example 36, 5-(3-Phenoxypropylamino)-5-desoxy-1.4;3.6-dianhydro-L-iditol 2-nitrate]
Mongrel cats; 0.25 mg/kg i.v.
  blood pressure before: 114.5 mm.Hg
  dp/dt (inotropism) before: 7933 mm.Hg/sec
  heart frequency before: 200.3 min⁻¹
  blood pressure WD: 5.1 min
  blood pressure after: 97.7 mm.Hg
  blood pressure Δ: -19.8 mm.Hg
  dp/dt (inotropism) after: 7433 mm.Hg/sec
  dp/dt (inotropism) Δ: -500 mm.Hg/sec
  dp/dt WD: 3.3 min
  heart frequency after: 204.3 min⁻¹
Mongrel cats; 0.50 mg/kg i.v.
  blood pressure WD: 8.5 min
  blood pressure after: 84.5 mm.Hg
  blood pressure Δ: -28.0 mm.Hg
  dp/dt (inotropism) after: 6650 mm.Hg/sec
  dp/dt (inotropism) Δ: -1183 mm.Hg/sec
  dp/dt WD: 7.9 min
  heart frequency after: 200.3 min⁻¹
  heart frequency Δ: -3.7 min⁻¹
Mongrel cats; 1.00 mg/kg i.v.
  blood pressure WD: 14.8 min
  blood pressure after: 74.3 mm.Hg
  blood pressure Δ: -42.5 mm.Hg
  dp/dt (inotropism) after: 5467 mm.Hg/sec
  dp/dt (inotropism) Δ: -2416 mm.Hg/sec
  dp/dt WD: 19.0 min
  heart frequency after: 194.3 min⁻¹
  heart frequency Δ: -8.0 min⁻¹
Mongrel cats; 2.50 mg/kg i.v.
  blood pressure WD: > 10 min
  blood pressure after: 62.5 mm.Hg
  blood pressure Δ: -58.3 mm.Hg
  dp/dt (inotropism) after: 4000 mm.Hg/sec
  dp/dt (inotropism) Δ: -3883 mm.Hg/sec
  dp/dt WD: 10 min
  heart frequency after: 175.3 min⁻¹
  heart frequency Δ: -22.4 min⁻¹
[1]
  LD50 at 24 h: 50 to 100 mg/kg
Female NMRI-albino mice; 50 mg/kg i.v.
  Frequency of death: 0/3
Female NMRI-albino mice; 100 mg/kg i.v.
  Frequency of death: 5/6

## O=[N+]([O-])O[C@H]1CO[C@H]2[C@@H]1OC[C@@H]2NC12CC3CC(CC(C3)C1)C2 [11 b]
[2]
  activation at 25 µg/mL: 145%
